{
  "source": "the METLIN SMRT retention time set (Domingo-Almenara et al. 2019)",
  "data": [
    {"assay": "gradient 5% acetonitrile 3 min, to 50% in 2 min, to 85% in 15 min, held 3 min, 100 µL/min", "conditions": "column: Zorbax Extend-C18 2.1 x 50 mm; eluents: water / acetonitrile, 0.1% formic acid", "in_short": "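Retention times of pure standards were taken from adduct peaks that were selected by computer and manually inspected. Over 3 months, mixtures of ~100 molecules were run by HPLC–quadrupole time-of-flight mass spectrometry in positive and negative ionization mode. The Zorbax Extend-C18 column (2.1 × 50 mm, 1.8 μm) ran at 100 μL/min in water and acetonitrile, each containing 0.1% formic acid, with 40 μL dead volume and 900 μL dwell volume.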", "units": {"RP-LC retention time": "s"}, "values": [
      {"molecule": "CCOC(=O)c1[nH]c(C)c(CCC(=O)N2CCC(C(=O)NCCC3=CCCCC3)CC2)c1C", "RP-LC retention time": 864},
      {"molecule": "Fc1ccc(OCc2nc(-c3ccc4c(c3)ncn4CCN3CCCC3)no2)cc1", "RP-LC retention time": 657},
      {"molecule": "O=C(NCc1ccc(F)cc1)N1CCN(c2cc(-c3ccncc3)[nH]n2)CC1", "RP-LC retention time": 611},
      {"molecule": "Cc1noc(CNC(=O)C2CCN(C(=O)NCc3ccc(F)cc3)CC2)n1", "RP-LC retention time": 615},
      {"molecule": "Cc1cccc(NC(=O)N2CCc3nc[nH]c3C2)c1C", "RP-LC retention time": 565},
      {"molecule": "CC(=O)Nc1ccc(-c2nc3ccc(C)cc3s2)cc1", "RP-LC retention time": 851},
      {"molecule": "COc1cccc(NC(=O)Cn2c(C)nc3onc(C)c3c2=O)c1", "RP-LC retention time": 708},
      {"molecule": "CC(Cc1ccco1)NC(=O)C1CCN(S(=O)(=O)c2ccc3c(c2)sc(=O)n3C(C)C)CC1", "note": "(centres undefined)", "RP-LC retention time": 920},
      {"molecule": "CCCn1c(C)c(C)c(S(=O)(=O)c2ccc(OC)cc2)c1NC(=O)C1CCCO1", "note": "(centres undefined)", "RP-LC retention time": 898},
      {"molecule": "CCOC(=O)c1[nH]c(C(=O)O)c(OC(=O)CC)c1C", "RP-LC retention time": 912},
      {"molecule": "O=C(NCc1cccnc1)C1=C2CCCN2c2ccc(F)cc2S1(=O)=O", "RP-LC retention time": 572},
      {"molecule": "COc1ncc(C(=O)Nc2ccc(C)cc2C)c(C)n1", "RP-LC retention time": 736},
      {"molecule": "O=C(Nc1ccccc1F)N1CC2CN(S(=O)(=O)c3ccc(F)cc3)CC(C1)O2", "RP-LC retention time": 758},
      {"molecule": "Cc1nn(-c2ccccc2)c(C)c1S(=O)(=O)N1CCC(C(=O)Nc2cc(F)ccc2F)CC1", "RP-LC retention time": 1000},
      {"molecule": "CCOC(=O)N1CCC(NC(=O)CCc2cc3cc(OC)ccc3[nH]c2=O)CC1", "RP-LC retention time": 663},
      {"molecule": "CC(=O)Nc1ccc(-c2cc(C(=O)N3CCN(c4ccccn4)CC3)c3ccccc3n2)cc1", "RP-LC retention time": 609},
      {"molecule": "COc1cc(NC(=O)Cc2ccc(S(=O)(=O)C(C)C)cc2)c2ncccc2c1", "RP-LC retention time": 827},
      {"molecule": "CN1CCN(CCCNC(=O)CN2C(=O)CCn3nc(-c4cn(C)c5ccccc45)cc32)CC1", "RP-LC retention time": 587},
      {"molecule": "O=C(Cc1ccc(NC(=O)c2ccc(F)cc2Cl)cc1)NC1CC1", "RP-LC retention time": 681},
      {"molecule": "Cc1cccc(CNC(=O)CCC2CCN(c3cc(NC4CC4)ncn3)CC2)c1", "RP-LC retention time": 672},
      {"molecule": "CCN1c2ccc(F)cc2C(=O)NC12CCN(C(=O)Cc1ccc(OC)cc1)CC2", "RP-LC retention time": 784},
      {"molecule": "O=C(NCC1CCCO1)c1nc(-c2ccnc(N3CCCC3)c2)no1", "note": "(centres undefined)", "RP-LC retention time": 597},
      {"molecule": "Brc1c(Br)c(Br)c2n[nH]nc2c1Br", "RP-LC retention time": 1010},
      {"molecule": "COc1ccc(CC(=O)N(C)CC2(C)CCOCC2)cc1Cl", "RP-LC retention time": 818},
      {"molecule": "COc1ccc(S(=O)(=O)Nc2ccc(-c3cn4ccc(C)nc4n3)cc2)cc1OC", "RP-LC retention time": 627},
      {"molecule": "Cc1ccccc1-n1c(=O)c2sccc2n(Cc2nc(-c3cccc(Br)c3)no2)c1=O", "RP-LC retention time": 1110},
      {"molecule": "O=C(Nc1ccc(NC(=O)N2CCC(C(=O)NCC3CC3)CC2)cc1)NC1CCCC1", "RP-LC retention time": 679},
      {"molecule": "CC(=O)Nc1ccc(S(=O)(=O)N2CCC3(CC2)Nc2cc(F)ccc2-n2cccc23)cc1", "RP-LC retention time": 967},
      {"molecule": "COc1ccccc1N1CCN(C(=O)C2CCN(S(=O)(=O)c3cn(C(C)C)cn3)CC2)CC1", "RP-LC retention time": 716},
      {"molecule": "CCc1cccc(NC(=O)CN2C(=O)CCCc3cc(S(=O)(=O)N4CCCC4)ccc32)c1", "RP-LC retention time": 916},
      {"molecule": "c1ccn(CCc2ccncc2)c1", "RP-LC retention time": 616},
      {"molecule": "O=C(Nc1cccc(Cl)c1)Nc1ccc2nc3n(c(=O)c2c1)CCCC3", "RP-LC retention time": 723},
      {"molecule": "Cc1ccc(OCc2nc(C)c(C(=O)N3CCC(C(N)=O)CC3)s2)cc1", "RP-LC retention time": 696},
      {"molecule": "CCOC(=O)C1CCN(C2=NS(=O)(=O)c3ccccc32)CC1", "RP-LC retention time": 739},
      {"molecule": "CC(C)NC(=O)N(CC(=O)N1CCc2sccc2C1COc1ccccc1)CC1CC1", "note": "(centres undefined)", "RP-LC retention time": 943},
      {"molecule": "Cc1ccc(NC(=O)CSc2ccc(N3CCCC(C(=O)NC4CC4)C3)nn2)cc1Cl", "note": "(centres undefined)", "RP-LC retention time": 698},
      {"molecule": "CC(=O)Nc1ccc(-c2noc(C3CCN(C(=O)c4ccc5cc[nH]c5c4)CC3)n2)cc1", "RP-LC retention time": 737},
      {"molecule": "Cc1ccc(-c2cn3ccn(-c4ccc(F)cc4)c(=O)c3n2)cc1", "RP-LC retention time": 827},
      {"molecule": "CCOCCc1c(O)nc(SC)[nH]c1=O", "RP-LC retention time": 650},
      {"molecule": "COc1cccc(S(=O)(=O)N2CCCN(C3CCN(Cc4ccccc4)C3=O)CC2)c1", "note": "(centres undefined)", "RP-LC retention time": 671},
      {"molecule": "CCc1noc(-c2cccnc2N2CCCN(Cc3ccc(F)cc3Cl)CC2)n1", "RP-LC retention time": 700},
      {"molecule": "CCc1nnc2ccc(-c3noc(COc4ccc(Cl)cc4)n3)cn12", "RP-LC retention time": 770},
      {"molecule": "CCOc1cccc(-c2noc(Cn3c(=O)n(-c4ccccc4F)c(=O)c4sccc43)n2)c1", "RP-LC retention time": 1050},
      {"molecule": "CC1CCC(NC(=O)C2CCN(c3cnn(Cc4ccccc4)c(=O)c3)CC2)CC1", "note": "(centres undefined)", "RP-LC retention time": 841}
    ]}
  ]
}
